Measured values reported in ChEMBL document CHEMBL3046826, “Triosephosphate isomerases in Italian ryegrass ( Lolium multiflorum ): characterization and susceptibility to herbicides” (J Agric Food Chem, 2009).

Columns and labels:
[1] = molecular target: Triosephosphate isomerase, chloroplastic (Secale cereale) (UniProt P46225); assay: Inhibition of desalted triosephosphate isomerase in Lolium multiflorum (Italian rye grass) shoot assessed as transformation of GAP to DHAP applied at concentration of 20.0 mg/flat measured per mg protein after 48 hr by coupled enzyme assay (reference value: 9.80 +/-0.43 nmol/sec)
[2] = molecular target: Triosephosphate isomerase, chloroplastic (Secale cereale) (UniProt P46225); assay: Inhibition of desalted triosephosphate isomerase in Lolium multiflorum (Italian ryegrass) shoot assessed as transformation of GAP to DHAP applied at concentration of 14.4 mg/flat measured per mg protein after 48 hr by coupled enzyme assay (reference value: 9.80 +/-0.43 nmol/sec)
[3] = molecular target: Triosephosphate isomerase, chloroplastic (Secale cereale) (UniProt P46225); assay: Inhibition of desalted triosephosphate isomerase in Lolium multiflorum (Italian ryegrass) shoot assessed as decrease in transformation of GAP to DHAP applied at concentration of 14.4 mg/flat measured after 48 hr by coupled enzyme assay
[4] = molecular target: Triosephosphate isomerase, chloroplastic (Secale cereale) (UniProt P46225); assay: Inhibition of desalted triosephosphate isomerase in Lolium multiflorum (Italian rye grass) shoot assessed as transformation of GAP to DHAP applied at concentration of 4.43 mg/flat measured per mg protein after 48 hr by coupled enzyme assay (reference value: 9.80 +/-0.43 nmol/sec)
[5] = molecular target: Triosephosphate isomerase, chloroplastic (Secale cereale) (UniProt P46225); assay: Inhibition of desalted triosephosphate isomerase in Lolium multiflorum (Italian ryegrass) shoot assessed as transformation of GAP to DHAP applied at concentration of 1.80 mg/flat measured per mg protein after 48 hr by coupled enzyme assay (reference value: 9.80 +/-0.43 nmol/sec)

Sequence of Triosephosphate isomerase, chloroplastic (Secale cereale) (P46225 whole entry): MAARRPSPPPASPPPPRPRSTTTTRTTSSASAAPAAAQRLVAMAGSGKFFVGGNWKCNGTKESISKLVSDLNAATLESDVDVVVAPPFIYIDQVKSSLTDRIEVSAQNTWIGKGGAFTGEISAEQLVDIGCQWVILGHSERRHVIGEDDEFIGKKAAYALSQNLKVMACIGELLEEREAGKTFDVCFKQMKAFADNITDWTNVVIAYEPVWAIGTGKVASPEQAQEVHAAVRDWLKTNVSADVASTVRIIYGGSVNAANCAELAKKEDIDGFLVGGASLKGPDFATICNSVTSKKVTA

SMILES	Activity [2]	inhibition [3]	other results
CCc1cccc(C)c1N(C(=O)CCl)C(C)COC (configuration not stated)			Activity [1]: 9.57 nmol/s
CCNc1nc(Cl)nc(NC(C)C)n1	7.2 nmol/s	26.5%	
CCOC(=O)c1nc(C(Cl)(Cl)Cl)n(-c2ccc(Cl)cc2Cl)n1			Activity [4]: 10.2 nmol/s
CCOC(=O)C(C)Oc1ccc(Oc2nc3ccc(Cl)cc3o2)cc1 (configuration not stated)			Activity [5]: 9.3 nmol/s
O=[N+]([O-])c1ccc(Oc2ccc(C(F)(F)F)cc2[N+](=O)[O-])cc1	6.28 nmol/s	35.9%	
